# From patent US20030171371A1, “Immunosuppressant n-acyles homoserine lactones” (priority 2000, published 2003)
# What was measured:
# [1] = system: TNF-alpha production from LPS-stimulated human PBMC; test: TNF-alpha production from LPS-stimulated human PBMC (sandwich ELISA); format: cell-based; details: FIG. 3, FIG. 5
# Method: Bacterial lipopolysaccharide (LPS) stimulates the production of a variety of cytokines, including TNF-alpha, from human PBMC; these cytokines in turn influence the development of T cells, supporting a T helper 1 conducive milieu. Human PBMC prepared from whole blood by buoyant density centrifugation were resuspended in CTCM. […] Following incubation for 24 h at 37° C. in 5% CO2-air, the cell culture supernatants were collected and tested for TNF-alpha levels by ‘sandwich’ ELISA. Briefly, 96-well Nunc MaxiSorp (Life Technologies, Paisley, UK) plates were coated with 50 μl of a 2 μg/ml solution of mouse anti-human TNF-alpha monoclonal antibody (Pharmingen, UK) in 0.05 M carbonate/bicarbonate buffer, pH 9.6 overnight at 4° C. […] Following three washes with PBS-Tween, 50 μl of cell culture supernatants were added and incubated overnight at 4° C.; standard human TNF-alpha (Pharmingen, UK) ranging from 2000 to 31.25 pg/ml were included for each plate. […] Following four washes, the bound biotinylated antibody was detected with 50 μl of a 1:1,000 dilution of Streptavidin-peroxidase (Pharmingen, UK). At the end of an hour incubation at room temperature, the plates were thoroughly washed six times with PBS-Tween and the assay was developed by the addition of 100 μl of 0.1 mg/ml of tetramethyl benzidine subtrate (Sigma, Poole, UK) in 0.1 M sodium acetate buffer, pH 6 containing 0.03% H2O2. The enzyme reaction was stopped with 50 μl of 2.5 M H2SO4 after an incubation of 10 minutes at room temperature and the development was read at 450 nm with a spectrophotometric 96-well plate reader (Dynex).
# human PBMC = test: ConA mitogen-stimulated proliferation of human PBMC ([3H]-thymidine incorporation); format: cell-based; details: FIG. 2
# Method: II. ConA Mitogen-Stimulated Proliferation of Human PBMC
# Blood specimens were obtained with consent from healthy human volunteers. Human peripheral blood mononuclear cells (PBMC) were isolated from heparinised whole blood by buoyant density centrifugation over Histopaque 1077 (Sigma, Poole, UK) at 600 g for 20 minutes. PBMC harvested from the ‘buffy’ layers were washed twice with RPMI 1640 medium and resuspended in CTCM. HSL compounds were tested at similar dilutions as for murine splenocytes in 200 μl of CTCM, containing 1 μg/ml of ConA and 100,000 PBMC. Human PBMC were incubated for 48 h at 37° C. in 5% CO2-air, followed by pulsing with 0.25 μCi [^3H]-thymidine (see above). After a further incubation of 24 h cells were harvested onto fibreglass filters and then counted in the presence of MicroScint-O with the Packard TopCount.
# Concanavalin induced cell proliferation of human peripheral blood mononuclear cells (PBMC) was tracked, as described in I above, by a measurement of counts per minute using the scintillation counter. The inhibitory effect of an HSL compound being tested on cell proliferation was indicated by a reduction in counts per minute.
# Columns B, C and D represent different sources of human PBMC samples used.
# murine splenocytes = test: ConA mitogen-stimulated proliferation of murine splenocytes ([3H]-thymidine incorporation); format: cell-based, mouse (BALB/c); details: for effect on ConA induced splenocyte proliferation (cpm vs concentration): FIG. 1
# Method: Proliferation was assessed by the incorporation of [^3H]-thymidine into DNA. Eight-week-old female BALB/c mice were obtained from Harlan (Bicester, Oxon, UK) and given food and water ad libitum. Splenocyte suspensions were prepared by removing the spleens and placing them into RPMI 1640 medium. The spleens were forced through 70-μm-pore-size wire gauzes using the plunger from a 5-ml syringe to produce a single cell suspension. […] Leucocytes were washed twice with RPMI 1640 medium with 2% (vol/vol) foetal calf serum (FCS) and resuspended in complete cell culture medium (CTCM) consisting of RPMI 1640 medium with 5% FCS, 2 mM L-glutamine, and 5×10^−5 M 2-mercaptoethanol. HSL compounds were tested at doubling down dilutions ranging from 1 mM to 0.1 μM in a final volume of 200 μl of CTCM, containing ConA (Sigma, Poole, UK) at 1 μg/ml and 100,000 spleen cells. Following incubation for 48 h at 37° C. in 5% CO2-air, 0.25 μCi [^3H]-thymidine (Amersham) in 10 μl volume made up in RPMI 1640 medium was added and the cells were incubated for a further 24 h. Cells were harvested onto fibreglass filters with a Packard filtermate harvester. After the addition of 25 μl of MicroScint-O (Packard) to each well the filters were counted with the Packard TopCount scintillation counter.
# Mitogen (Concanavalin A) induced murine splenocyte proliferation was indicated by the incorporation of tritated thymidine into the DNA in the mouse spleen cells as shown by counts per minute using the scintillation counter. The inhibitory effect of an HSL compound being tested on cell proliferation was indicated by a reduction in counts per minute.
# murine spleen cells = details: literature report; cited from earlier work
# [2] = system: TNF-a production by LPS-stimulated adherent murine peritoneal macrophages; details: literature report; cited from earlier work
Compound,effect on LPS induced TNF-α secretion by human PBMC [1],effect on proliferation of human PBMC stimulated with Concanavalin A (cpm vs concentration) (human PBMC),effect on ConA induced splenocyte proliferation (cpm vs concentration) (murine splenocytes),further results
"CCCC(=O)CC(=O)N[C@H]1CCOC1=O [OHHL, N-(3-oxohexanoyl)-L-homoserine lactone]",difference in activity between OHHL and OdDHL is marked,,,
"CCCCCCCCCCCC(=O)CC(=O)N[C@H]1CCOC1=O [Example 11, N-(3-Oxotetradecanoyl)-L-homoserine lactone]",inhibited the secretion of the T helper 1-supporting cytokine TNF-α,inhibited proliferation of human PBMC,,
"CCCCCCCCCC(=O)CC(=O)N[C@H]1CCOC1=O [Example 6, N-(3-Oxododecanoyl)-L-homoserine lactone]",inhibited the secretion of the T helper 1-supporting cytokine TNF-α,inhibited proliferation of human PBMC,inhibits splenocyte proliferation,effect on concavalin A mitogen stimulated proliferation of murine spleen cells (murine spleen cells): inhibiting; effect on TNF-a production by LPS-stimulated adherent murine peritoneal macrophages [2]: inhibiting
"CCCCCC(=O)CC(=O)N[C@H]1CCOC1=O [OOHL, N-(3-oxooctanoyl)-L-homoserine lactone]",,,failed to inhibit proliferation,
N-(3-Hydroxy-9-tetradecenoyl)-L-homoserine lactone [Example 24],,,,"IC50 (murine splenocytes; Experiment I, ConA 1 μg/ml, 100,000 spleen cells, read-out: IC50, inhibition of ConA induced murine splenocyte proliferation (column A)): 15 µM"
